{"source": "paper PMC9137622", "about": "“OPDAylation of Thiols of the Redox Regulatory Network In Vitro” (Antioxidants, 2022)", "key": {"GRX-C2": {"target": "T1, GRX-C2 (Arabidopsis thaliana, UniProt Q9FNE2)", "T1 construct": "gene GRXC2", "T1 sequence (Q9FNE2 whole entry)": "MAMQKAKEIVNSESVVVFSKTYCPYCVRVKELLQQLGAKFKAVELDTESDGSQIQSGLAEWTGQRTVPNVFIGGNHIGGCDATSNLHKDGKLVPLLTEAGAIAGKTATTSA", "experiment": "HED assay, NADPH oxidation at […] nm", "type": "biochemical", "conditions": "2 mM GSH, 0.7 mM HED, 1 µM GR, 0.1 µM GRX, pH 7.5, RT"}, "TRX-m4 [1]": {"target": "T2, TRX-m4 (Arabidopsis thaliana, UniProt Q9SEU6)", "T2 construct": "gene At3g15360; His-tagged, E. coli, Ni-NTA", "T2 sequence (Q9SEU6 83-193)": "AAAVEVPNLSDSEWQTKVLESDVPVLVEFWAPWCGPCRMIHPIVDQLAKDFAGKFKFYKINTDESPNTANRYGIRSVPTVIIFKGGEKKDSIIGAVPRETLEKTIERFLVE", "experiment": "HPLC depletion of free OPDA, mPEG-maleimide shift", "type": "binding", "conditions": "covalent; 200 µM OPDA, 50 or 100 µM reduced protein, pH 7.2, at least 2 h, RT"}, "TRX-m4 [2]": {"target": "T2, TRX-m4", "experiment": "coupled GPXL8 H2O2 reduction, NADPH oxidation at […] nm", "type": "biochemical", "conditions": "covalent; 20 µM reduced protein preincubated with 150 µM OPDA 1 h, then 5 µM in NTRA/GPXL8 assay, pH 7.5"}, "TRX-h5 [3]": {"target": "T3, TRX-h5 (Arabidopsis thaliana, UniProt Q39241)", "T3 construct": "gene TRX5", "T3 sequence (Q39241 1-118 limits assumed)": "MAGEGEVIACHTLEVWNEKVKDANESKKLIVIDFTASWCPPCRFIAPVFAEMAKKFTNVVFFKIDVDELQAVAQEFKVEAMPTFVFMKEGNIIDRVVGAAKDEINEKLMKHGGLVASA", "experiment": "HPLC depletion of free OPDA, mPEG-maleimide shift", "type": "binding", "conditions": "covalent; 200 µM OPDA, 50 or 100 µM reduced protein, pH 7.2, at least 2 h, RT"}, "TRX-f1": {"target": "T4, TRX-f1 (Arabidopsis thaliana, UniProt Q9XFH8)", "T4 construct": "gene At3g02730; His-tagged, E. coli, Ni-NTA", "T4 sequence (Q9XFH8 58-178)": "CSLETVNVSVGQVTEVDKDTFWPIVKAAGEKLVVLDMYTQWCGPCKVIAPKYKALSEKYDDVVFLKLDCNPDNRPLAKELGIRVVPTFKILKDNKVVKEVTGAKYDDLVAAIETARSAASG", "experiment": "HPLC depletion of free OPDA, mPEG-maleimide shift", "type": "binding", "conditions": "covalent; 200 µM OPDA, 50 or 100 µM reduced protein, pH 7.2, at least 2 h, RT"}, "TRX-h3": {"target": "T5, TRX-h3 (Arabidopsis thaliana, UniProt Q42403)", "T5 construct": "gene TRX3", "T5 sequence (Q42403 1-118 limits assumed)": "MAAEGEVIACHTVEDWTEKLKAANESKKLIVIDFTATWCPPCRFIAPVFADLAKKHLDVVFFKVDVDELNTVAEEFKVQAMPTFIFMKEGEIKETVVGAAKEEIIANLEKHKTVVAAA", "experiment": "coupled GPXL8 H2O2 reduction, NADPH oxidation at […] nm", "type": "biochemical", "conditions": "covalent; 20 µM reduced protein preincubated with 150 µM OPDA 1 h, then 0.25 µM in NTRA/GPXL8 assay, pH 7.5"}, "PRXIIB": {"target": "T6, PRXIIB (Arabidopsis thaliana, UniProt Q9XEX2)", "T6 sequence (Q9XEX2 1-162)": "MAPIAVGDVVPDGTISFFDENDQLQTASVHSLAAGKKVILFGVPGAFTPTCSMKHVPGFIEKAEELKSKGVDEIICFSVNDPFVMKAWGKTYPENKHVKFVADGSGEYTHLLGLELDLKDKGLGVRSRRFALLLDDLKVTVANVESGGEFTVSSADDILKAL", "experiment": "coupled H2O2 reduction (GR/GSH/GRXC2), NADPH oxidation at […] nm", "type": "biochemical", "conditions": "20 µM reduced PRXIIB preincubated with 150 µM OPDA 1 h, then 3 µM in assay, pH 7.5; weak effect"}, "TRX-h5 [4]": {"target": "T3, TRX-h5", "experiment": "coupled GPXL8 H2O2 reduction, NADPH oxidation at […] nm", "type": "biochemical", "conditions": "covalent; 20 µM reduced protein preincubated with 150 µM OPDA 1 h, then 0.25 µM in NTRA/GPXL8 assay, pH 7.5"}, "GAPC2": {"target": "T7, GAPC2 (Arabidopsis thaliana, UniProt Q9FX54)", "T7 construct": "His10-tagged, E. coli, Ni-NTA", "T7 sequence (Q9FX54 whole entry)": "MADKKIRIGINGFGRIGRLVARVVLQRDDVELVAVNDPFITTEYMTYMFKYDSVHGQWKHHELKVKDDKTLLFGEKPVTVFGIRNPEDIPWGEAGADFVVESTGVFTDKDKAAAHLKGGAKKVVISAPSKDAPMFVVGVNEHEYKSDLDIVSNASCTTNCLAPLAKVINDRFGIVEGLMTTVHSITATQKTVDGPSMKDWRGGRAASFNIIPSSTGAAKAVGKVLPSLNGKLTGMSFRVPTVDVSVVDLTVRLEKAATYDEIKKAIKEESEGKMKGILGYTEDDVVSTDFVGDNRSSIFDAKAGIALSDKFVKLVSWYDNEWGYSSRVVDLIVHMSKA", "experiment": "NADH consumption at […] nm, PGK-coupled", "type": "biochemical", "conditions": "8 mM 3-PGA, 4 mM ATP, 90 nM PGK, pH 7.8, RT"}}}
{"compound": "OCCSSCCO", "note": "[HED, hydroxyethyldisulfide]", "values": [{"measurement": "HED assay, NADPH oxidation at 340 nm", "setting": "GRX-C2", "value": "HED assay to determine GRX-dependent reduction activity"}]}
{"compound": "CC/C=C\\C[C@@H]1C(=O)C=C[C@@H]1CCCCCCCC(=O)O", "note": "[OPDA, cis-(+)-12-oxophytodienoic acid]", "values": [{"measurement": "HPLC depletion of free OPDA, mPEG-maleimide shift", "setting": "TRX-m4 [1]", "value": "three thiols in the case of TRX-f1 and TRX-m4"}, {"measurement": "inhibition", "setting": "TRX-m4 [2]", "value": "~ 60%"}, {"measurement": "HPLC depletion of free OPDA, mPEG-maleimide shift", "setting": "TRX-h5 [3]", "value": "two thiols reacted with OPDA in the case of TRX-h3 and TRX-h5"}, {"measurement": "HPLC depletion of free OPDA, mPEG-maleimide shift", "setting": "TRX-f1", "value": "three thiols in the case of TRX-f1 and TRX-m4"}, {"measurement": "inhibition", "setting": "TRX-h3", "value": "~ 80%"}, {"measurement": "inhibition", "setting": "PRXIIB", "value": "OPDA seems to act directly on PRXIIB at a low level"}, {"measurement": "inhibition", "setting": "TRX-h5 [4]", "value": "~ 80%"}]}
{"compound": "NC(=O)C1=CN([C@@H]2O[C@H](COP(=O)(O)OP(=O)(O)OC[C@H]3O[C@@H](n4cnc5c(N)ncnc54)[C@H](O)[C@@H]3O)[C@@H](O)[C@H]2O)C=CC1", "note": "[NADH]", "values": [{"measurement": "NADH consumption at 340 nm, PGK-coupled", "setting": "GAPC2", "value": "coupled activity of phosphoglycerate kinase and GAPDH was measured as consumption of NADH"}]}
